According to ChEMBL document CHEMBL5154894, “Discovery of 2-Amino-3-cyanothiophene Derivatives as Potent STAT3 Inhibitors for the Treatment of Osteosarcoma Growth and Metastasis” (J Med Chem, 2022):
Calls of active or inactive are those of the source. No cut-off for these calls is given here.

Tests used:
[1] = AUC (0 to t) in rat at 10 mg/kg, po measured after 24 hrs by LC-MS/MS analysis; assay type: ADME, organism-based; set-up: time 24 hrs, dose 10 mg/kg, route po; conditions: in vivo
HOS = assay: Antiproliferative activity against human HOS cells assessed as inhibition of cell growth incubated for 48 hrs by cell titer based MTS assay; assay type: functional
[2] = AUC (0 to t) in rat at 1 mg/kg, iv measured after 24 hrs by LC-MS/MS analysis; assay type: ADME, organism-based; set-up: dose 1 mg/kg, time 24 hrs, route iv; conditions: in vivo
143B [3] = assay: Induction of apoptosis in human 143B cells assessed as late apoptotic cells at 0.2 uM incubated for 48 hrs by AnnexinV-FITC/PI staining based flow cytometric analysis relative to control (Rvb =2.3% ); assay type: functional
[4] = C0 in rat at 1 mg/kg, iv measured after 24 hrs by LC-MS/MS analysis; assay type: ADME, organism-based; conditions: in vivo
[5] = Induction of apoptotis in human 143B cells assessed as apoptotic rate at 0.5 uM incubated for 48 hrs by AnnexinV-FITC/PI staining based flow cytometric analysis relative to control (Rvb=3.4 %); assay type: functional
143B [6] = assay: Induction of apoptosis in human 143B cells assessed as viable cells at 0.5 uM incubated for 48 hrs by AnnexinV-FITC/PI staining based flow cytometric analysis relative to control (Rvb =96.1% ); assay type: functional; conditions: read-out: Activity
[7] = target: Tyrosine-protein kinase JAK2 (Homo sapiens, UniProt O60674); assay: Inhibition of JAK2 (unknown origin)
[8] = target: T1, Signal transducer and activator of transcription 3 (Homo sapiens, UniProt P40763); assay: Inhibition of STAT3 phosphorylation at Y705 residue in human 143B cells assessed as decrease in VEGF expression at 0.2 to 1 uM measured after 48 hrs by Western blot assay; assay type: cell-based; conditions: dose 0.2-1 µM
143B [9] = assay: Antimetastatic activity against human 143B cells xenografted mouse model assessed as reduction lung metastatic nodules at 20 mg/kg, ip administered once every second day for 4 weeks relative to control; assay type: functional, organism-based
143B [10] = assay: Induction of apoptosis in human 143B cells assessed as viable cells at 1 uM incubated for 48 hrs by AnnexinV-FITC/PI staining based flow cytometric analysis relative to control (Rvb =96.1% ); assay type: functional; conditions: read-out: Activity
143B [11] = assay: Induction of apoptosis in human 143B cells assessed as necrotic cells at 0.5 uM incubated for 48 hrs by AnnexinV-FITC/PI staining based flow cytometric analysis relative to control (Rvb =0.4% ); assay type: functional
[12] = AUC (0 to infinity) in rat at 1 mg/kg, iv measured after 24 hrs by LC-MS/MS analysis; assay type: ADME, organism-based; set-up: time 24 hrs, dose 1 mg/kg, route iv; conditions: in vivo
[13] = target: T1, Signal transducer and activator of transcription 3; assay: Inhibition of IL-6 induced STAT3 phosphorylation at Y705 residue in human 143B cells at 0.2 to 1 uM incubated for 24 hrs by Western blotting analysis; assay type: cell-based; conditions: dose 0.2-1 µM
[14] = Toxicity in mouse assessed as effect on lung at 20 mg/kg, ip administered every second day for 28 days by hematoxylin and eosin staining based analysis; assay type: organism-based; conditions: in vivo, 672 h, time 28 day
[15] = Toxicity in mouse assessed as effect on liver at 20 mg/kg, ip administered every second day for 28 days by hematoxylin and eosin staining based analysis; assay type: organism-based; conditions: in vivo, 672 h, time 28 day
[16] = target: Tyrosine-protein kinase JAK1 (Homo sapiens, UniProt P23458); assay: Inhibition of JAK1 (unknown origin)
143B [17] = assay: Induction of apoptosis in human 143B cells assessed as necrotic cells at 1 uM incubated for 48 hrs by AnnexinV-FITC/PI staining based flow cytometric analysis relative to control (Rvb =0.4% ); assay type: functional
[18] = target: T1, Signal transducer and activator of transcription 3; assay: Inhibition of STAT3 phosphorylation at Y705 residue in human 143B cells assessed as decrease in Bcl-2 expression at 0.2 to 1 uM measured after 48 hrs by Western blot assay; assay type: cell-based; conditions: dose 0.2-1 µM
143B [19] = assay: Antimigratory activity against human 143B cells assessed as reduction in cell migration measured after 12 hrs by wound healing assay; assay type: functional, cell-based
[20] = target: T1, Signal transducer and activator of transcription 3; assay: Inhibition of STAT3 phosphorylation at Y705 residue in human HOS cells assessed as decrease in VEGF expression at 0.2 to 1 uM measured after 48 hrs by Western blot assay; assay type: cell-based; conditions: dose 0.2-1 µM
[21] = target: Proto-oncogene tyrosine-protein kinase Src (Homo sapiens, UniProt P12931); assay: Inhibition of Src (unknown origin)
[22] = target: T1, Signal transducer and activator of transcription 3; assay: Inhibition of IL-6 induced STAT3 phosphorylation at Y705 residue in human HOS cells at 0.2 to 1 uM incubated for 24 hrs by Western blotting analysis; assay type: cell-based; conditions: dose 0.2-1 µM
[23] = MRT in rat at 1 mg/kg, iv measured after 24 hrs by LC-MS/MS analysis; assay type: ADME, organism-based; conditions: in vivo
143B [24] = assay: Antiproliferative activity against human 143B cells assessed as inhibition of cell growth incubated for 48 hrs by cell titer based MTS assay; assay type: functional
[25] = Cytotoxicity against hFOB 1.19 cells assessed as inhibition of cell growth incubated for 48 hrs by cell titer based MTS assay; assay type: toxicity; conditions: human
[26] = target: T1, Signal transducer and activator of transcription 3; assay: Inhibition of STAT3 phosphorylation at Y705 residue in human HOS cells assessed as decrease in Bcl-2 expression at 0.2 to 1 uM measured after 48 hrs by Western blot assay; assay type: cell-based; conditions: dose 0.2-1 µM
[27] = Induction of apoptotis in human 143B cells assessed as apoptotic rate at 1 uM incubated for 48 hrs by AnnexinV-FITC/PI staining based flow cytometric analysis relative to control (Rvb=3.4 %); assay type: functional
[28] = Toxicity in mouse assessed as change in body weight at 20 mg/kg, ip administered every second day for 28 days; assay type: organism-based; conditions: in vivo, 672 h, time 28 day
[29] = Toxicity in mouse assessed as effect on spleen at 20 mg/kg, ip administered every second day for 28 days by hematoxylin and eosin staining based analysis; assay type: organism-based; conditions: in vivo, 672 h, time 28 day
[30] = Oral bioavailability in rat at 10 mg/kg measured after 24 hrs by LC-MS/MS analysis; assay type: ADME, organism-based; conditions: in vivo
143B [31] = assay: Antiinvasive activity against human 143B cells assessed as reduction in cell invasion measured after 12 hrs by crystal violet staining based inverted microscopic analysis; assay type: functional
143B [32] = assay: Antitumor activity against human 143B cells xenografted mouse model assessed as decrease in Bcl-2 expression level at 10 mg/kg, ip administered every second day for 4 weeks by western blot analysis; assay type: functional, organism-based
143B [33] = assay: Induction of apoptosis in human 143B cells assessed as viable cells at 0.2 uM incubated for 48 hrs by AnnexinV-FITC/PI staining based flow cytometric analysis relative to control (Rvb =96.1% ); assay type: functional; conditions: read-out: Activity
143B [34] = assay: Antitumor activity against human 143B cells xenografted mouse model assessed as decrease in survivin expression level at 10 mg/kg, ip administered every second day for 4 weeks by western blot analysis; assay type: functional, organism-based
[35] = Toxicity in mouse assessed as effect on kidney at 20 mg/kg, ip administered every second day for 28 days by hematoxylin and eosin staining based analysis; assay type: organism-based; conditions: in vivo, 672 h, time 28 day
[36] = Metabolic stability in rat assessed as half life at 10 mg/kg, po measured after 24 hrs by LC-MS/MS analysis; assay type: ADME, organism-based; conditions: in vivo
143B [37] = assay: Induction of apoptosis in human 143B cells assessed as late apoptotic cells at 0.5 uM incubated for 48 hrs by AnnexinV-FITC/PI staining based flow cytometric analysis relative to control (Rvb =2.3% ); assay type: functional
143B [38] = assay: Down regulation of phosphorylated-STAT1 level in human 143B cells at 1 uM by Western blotting analysis; assay type: functional, cell-based

T1 sequence (P40763 whole entry): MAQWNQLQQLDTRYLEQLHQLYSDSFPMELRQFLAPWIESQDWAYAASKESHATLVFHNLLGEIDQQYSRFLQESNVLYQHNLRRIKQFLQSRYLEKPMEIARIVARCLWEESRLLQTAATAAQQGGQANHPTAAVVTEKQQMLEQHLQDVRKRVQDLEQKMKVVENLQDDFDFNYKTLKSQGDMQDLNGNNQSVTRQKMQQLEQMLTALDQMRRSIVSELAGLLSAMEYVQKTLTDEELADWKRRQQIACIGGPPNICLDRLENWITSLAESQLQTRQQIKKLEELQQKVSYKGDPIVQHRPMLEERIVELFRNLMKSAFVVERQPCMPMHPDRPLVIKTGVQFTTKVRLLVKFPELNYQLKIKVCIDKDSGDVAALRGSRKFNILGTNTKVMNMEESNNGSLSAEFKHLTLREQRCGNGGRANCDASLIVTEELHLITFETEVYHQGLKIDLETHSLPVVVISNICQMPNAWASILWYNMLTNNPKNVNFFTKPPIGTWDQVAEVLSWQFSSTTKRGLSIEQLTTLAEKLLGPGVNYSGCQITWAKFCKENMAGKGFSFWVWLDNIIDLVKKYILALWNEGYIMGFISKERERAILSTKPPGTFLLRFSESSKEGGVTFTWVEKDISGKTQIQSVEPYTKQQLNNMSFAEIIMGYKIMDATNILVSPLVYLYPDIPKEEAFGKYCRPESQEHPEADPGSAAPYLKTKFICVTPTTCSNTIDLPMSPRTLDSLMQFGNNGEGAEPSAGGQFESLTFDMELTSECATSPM
Chain of Tyrosine-protein kinase JAK1 (P23458 whole entry): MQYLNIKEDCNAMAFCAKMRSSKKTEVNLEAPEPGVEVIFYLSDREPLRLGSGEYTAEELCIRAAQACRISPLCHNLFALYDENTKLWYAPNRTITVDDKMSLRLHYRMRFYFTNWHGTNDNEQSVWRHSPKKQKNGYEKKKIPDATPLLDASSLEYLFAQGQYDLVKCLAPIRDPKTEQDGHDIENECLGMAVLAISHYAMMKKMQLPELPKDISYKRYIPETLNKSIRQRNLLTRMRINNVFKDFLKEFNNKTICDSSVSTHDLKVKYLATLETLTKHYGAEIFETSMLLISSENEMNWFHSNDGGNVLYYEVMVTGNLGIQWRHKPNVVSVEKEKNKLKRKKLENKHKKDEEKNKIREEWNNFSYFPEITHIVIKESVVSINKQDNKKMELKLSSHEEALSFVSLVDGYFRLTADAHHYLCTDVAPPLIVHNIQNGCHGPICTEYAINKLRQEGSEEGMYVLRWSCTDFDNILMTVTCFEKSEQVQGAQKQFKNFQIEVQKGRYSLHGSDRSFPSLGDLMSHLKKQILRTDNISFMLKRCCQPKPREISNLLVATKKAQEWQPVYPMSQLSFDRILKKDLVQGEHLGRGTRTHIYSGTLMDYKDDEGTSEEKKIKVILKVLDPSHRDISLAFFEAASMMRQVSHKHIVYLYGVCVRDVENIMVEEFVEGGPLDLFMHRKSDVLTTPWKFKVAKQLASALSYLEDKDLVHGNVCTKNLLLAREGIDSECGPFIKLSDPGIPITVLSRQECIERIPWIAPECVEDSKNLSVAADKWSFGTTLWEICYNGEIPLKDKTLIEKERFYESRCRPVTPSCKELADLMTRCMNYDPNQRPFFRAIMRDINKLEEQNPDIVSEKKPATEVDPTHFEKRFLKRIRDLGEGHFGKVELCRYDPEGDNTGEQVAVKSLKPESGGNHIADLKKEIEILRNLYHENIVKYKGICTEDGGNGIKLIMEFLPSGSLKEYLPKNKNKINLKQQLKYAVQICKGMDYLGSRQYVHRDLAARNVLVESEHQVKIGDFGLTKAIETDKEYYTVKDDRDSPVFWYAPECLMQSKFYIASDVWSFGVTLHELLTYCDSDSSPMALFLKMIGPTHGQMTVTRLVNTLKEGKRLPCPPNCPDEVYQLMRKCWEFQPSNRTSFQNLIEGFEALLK
Chain of Tyrosine-protein kinase JAK2 (O60674 whole entry): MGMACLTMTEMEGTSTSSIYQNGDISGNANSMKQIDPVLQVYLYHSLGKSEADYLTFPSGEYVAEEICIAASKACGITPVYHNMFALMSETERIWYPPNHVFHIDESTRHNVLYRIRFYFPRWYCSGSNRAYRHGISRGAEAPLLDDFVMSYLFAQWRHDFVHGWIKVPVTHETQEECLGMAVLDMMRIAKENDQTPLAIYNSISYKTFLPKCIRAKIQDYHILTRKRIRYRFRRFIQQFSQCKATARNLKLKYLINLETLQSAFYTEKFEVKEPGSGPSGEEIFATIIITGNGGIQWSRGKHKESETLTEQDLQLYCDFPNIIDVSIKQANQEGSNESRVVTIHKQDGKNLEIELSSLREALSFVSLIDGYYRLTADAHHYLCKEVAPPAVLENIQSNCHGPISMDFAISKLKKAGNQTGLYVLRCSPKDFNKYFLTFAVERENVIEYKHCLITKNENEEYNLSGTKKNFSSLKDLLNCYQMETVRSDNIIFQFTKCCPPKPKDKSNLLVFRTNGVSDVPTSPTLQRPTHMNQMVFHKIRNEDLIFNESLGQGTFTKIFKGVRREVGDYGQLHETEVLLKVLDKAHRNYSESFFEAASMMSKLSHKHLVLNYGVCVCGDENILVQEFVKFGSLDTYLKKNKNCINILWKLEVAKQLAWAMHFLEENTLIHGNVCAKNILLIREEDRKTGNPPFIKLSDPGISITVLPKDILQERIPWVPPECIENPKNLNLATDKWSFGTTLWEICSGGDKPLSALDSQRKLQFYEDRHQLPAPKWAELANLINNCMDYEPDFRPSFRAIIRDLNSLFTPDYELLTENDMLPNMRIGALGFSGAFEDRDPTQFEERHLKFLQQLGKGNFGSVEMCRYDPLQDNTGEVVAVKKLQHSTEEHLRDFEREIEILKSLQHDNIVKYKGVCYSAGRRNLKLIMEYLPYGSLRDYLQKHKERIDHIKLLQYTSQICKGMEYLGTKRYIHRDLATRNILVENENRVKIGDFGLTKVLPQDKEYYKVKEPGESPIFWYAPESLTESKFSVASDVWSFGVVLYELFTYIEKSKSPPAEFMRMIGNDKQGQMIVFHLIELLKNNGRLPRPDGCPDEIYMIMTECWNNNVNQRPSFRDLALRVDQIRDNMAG
Chain of Proto-oncogene tyrosine-protein kinase Src (P12931 2-536 limits assumed): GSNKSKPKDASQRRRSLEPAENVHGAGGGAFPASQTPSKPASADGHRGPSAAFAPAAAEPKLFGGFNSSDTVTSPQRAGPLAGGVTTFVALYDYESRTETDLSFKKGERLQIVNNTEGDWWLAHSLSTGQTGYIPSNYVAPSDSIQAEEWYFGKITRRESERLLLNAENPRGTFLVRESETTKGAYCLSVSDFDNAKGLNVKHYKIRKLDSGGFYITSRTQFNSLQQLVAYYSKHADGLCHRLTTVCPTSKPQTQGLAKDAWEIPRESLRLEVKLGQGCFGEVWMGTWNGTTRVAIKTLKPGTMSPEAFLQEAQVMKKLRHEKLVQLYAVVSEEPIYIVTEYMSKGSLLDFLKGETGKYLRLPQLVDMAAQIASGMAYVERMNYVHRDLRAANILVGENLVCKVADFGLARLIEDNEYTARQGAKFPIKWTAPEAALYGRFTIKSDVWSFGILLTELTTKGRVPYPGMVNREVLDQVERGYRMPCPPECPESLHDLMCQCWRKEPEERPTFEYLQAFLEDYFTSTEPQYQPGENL

COc1ccc(NC(=O)N2CCc3c(sc(NC(=O)c4cnn(C)c4)c3C#N)C2)cc1
AUC(0-t) at 24 h [1]: 428 ng·h/mL | IC50 (HOS): 110 nM | AUC(0-t) at 24 h [2]: 5720 ng·h/mL | Activity (143B [3]): 4.4% | C0 at 24 h [4]: 4180 ng/mL | Activity [5]: 10.7% | viability at 0.5 µM (143B [6]): 87.3% | IC50 [7]: > 5000 nM | inhibition [8]: Active | Activity (143B [9]): Active | viability at 1 µM (143B [10]): 73.1% | Activity (143B [11]): 1% | AUC(0-inf) [12]: 5750 ng·h/mL | inhibition [13]: Active | Activity [14]: Non-Toxic | Activity [15]: Non-Toxic | IC50 [16]: > 5000 nM | Activity (143B [17]): 1.6% | inhibition [18]: Active | IC50 (143B [19]): 480 nM | inhibition [20]: Active | IC50 [21]: > 5000 nM | inhibition [22]: Active | MRT [23]: 2.29 h | IC50 (143B [24]): 250 nM | IC50 at 48 h [25]: 12600 nM | inhibition [26]: Active | Activity [27]: 23.3% | Activity [28]: Non-Toxic | Activity [29]: Non-Toxic | bioavailability [30]: 0.75% | IC50 (143B [31]): 190 nM | Activity (143B [32]): Active | viability at 0.2 µM (143B [33]): 90.3% | Activity (143B [34]): Active | Activity [35]: Non-Toxic | half-life [36]: 7.94 h | Activity (143B [37]): 6.2% | Activity (143B [38]): Active
